PubChem BioAssay (NCI)
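Following 48 hours of exposure in 96-well plates, responses at five concentrations were used to interpolate endpoints linearly. TGI: total growth inhibition.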

Legend:
Assay in all cases: growth of human tumour cells (NCI), 48 h
IGROV1 ovarian = test system: IGROV1 ovarian
K-562 leukemia = test system: K-562 leukemia
BT-549 breast = test system: BT-549 breast
OVCAR-3 ovarian = test system: OVCAR-3 ovarian
MDA-N = test system: MDA-N
COLO 205 colon = test system: COLO 205 colon
MOLT-4 leukemia = test system: MOLT-4 leukemia
HOP-62 NSCLC = test system: HOP-62 NSCLC
HOP-92 NSCLC = test system: HOP-92 NSCLC
SK-MEL-28 melanoma = test system: SK-MEL-28 melanoma
MALME-3M melanoma = test system: MALME-3M melanoma
UO-31 renal = test system: UO-31 renal
SF-295 CNS = test system: SF-295 CNS
HT29 colon = test system: HT29 colon
LOX IMVI melanoma = test system: LOX IMVI melanoma
SNB-75 CNS = test system: SNB-75 CNS
KM12 colon = test system: KM12 colon
PC-3 prostate = test system: PC-3 prostate
SK-MEL-5 melanoma = test system: SK-MEL-5 melanoma
TK-10 renal = test system: TK-10 renal
SNB-19 CNS = test system: SNB-19 CNS
786-0 renal = test system: 786-0 renal
M14 melanoma = test system: M14 melanoma
UACC-62 melanoma = test system: UACC-62 melanoma
SR leukemia = test system: SR leukemia
NCI-H23 lung = test system: NCI-H23 lung
T-47D breast = test system: T-47D breast
ACHN renal = test system: ACHN renal
SK-OV-3 ovarian = test system: SK-OV-3 ovarian
CCRF-CEM leukemia = test system: CCRF-CEM leukemia
NCI-H226 lung = test system: NCI-H226 lung
HCT-116 colon = test system: HCT-116 colon
SW-620 colon = test system: SW-620 colon
SK-MEL-2 melanoma = test system: SK-MEL-2 melanoma
OVCAR-4 ovarian = test system: OVCAR-4 ovarian
NCI/ADR-RES ovarian = test system: NCI/ADR-RES ovarian
NCI-H460 lung = test system: NCI-H460 lung
MDA-MB-231 breast = test system: MDA-MB-231 breast
MDA-MB-435 = test system: MDA-MB-435
HL-60(TB) leukemia = test system: HL-60(TB) leukemia
DU-145 prostate = test system: DU-145 prostate
HCT-15 colon = test system: HCT-15 colon
HS 578T breast = test system: HS 578T breast
SF-539 CNS = test system: SF-539 CNS
CAKI-1 renal = test system: CAKI-1 renal
SF-268 CNS = test system: SF-268 CNS
MCF7 breast = test system: MCF7 breast
RPMI-8226 leukemia = test system: RPMI-8226 leukemia
A498 renal = test system: A498 renal
RXF 393 renal = test system: RXF 393 renal
NCI-H522 lung = test system: NCI-H522 lung
SN12C renal = test system: SN12C renal
A549 NSCLC = test system: A549 NSCLC
UACC-257 melanoma = test system: UACC-257 melanoma
OVCAR-8 ovarian = test system: OVCAR-8 ovarian
U251 CNS = test system: U251 CNS
HCC-2998 colon = test system: HCC-2998 colon
OVCAR-5 ovarian = test system: OVCAR-5 ovarian
EKVX NSCLC = test system: EKVX NSCLC

Measured: TGI

C[C@]12CC/C(=N\O)C=C1CC[C@@H]1[C@@H]2CC[C@]2(C)C(=N/O)/C(=C/c3ccc([N+](=O)[O-])cc3)C[C@@H]12
19.5 µM: K-562 leukemia
7.61 µM: RPMI-8226 leukemia
28.8 µM: DU-145 prostate
19 µM: MDA-MB-435
30.7 µM: SN12C renal
19.3 µM: LOX IMVI melanoma
29.6 µM: MDA-MB-231 breast
3.69 µM: T-47D breast
14.3 µM: BT-549 breast
16.2 µM: SK-MEL-5 melanoma
14.6 µM: UACC-62 melanoma
9.55 µM: MOLT-4 leukemia
14.2 µM: HCT-116 colon
33.9 µM: UACC-257 melanoma
21.9 µM: HT29 colon
20.4 µM: UO-31 renal
71 µM: MALME-3M melanoma
17.1 µM: SK-MEL-2 melanoma
16 µM: M14 melanoma | CCRF-CEM leukemia
23.6 µM: KM12 colon
9.26 µM: SR leukemia
18.3 µM: HS 578T breast
75.2 µM: NCI-H23 lung
8.96 µM: SF-295 CNS
27.7 µM: 786-0 renal
45.4 µM: A498 renal
26.9 µM: SNB-75 CNS
91 µM: TK-10 renal
8.91 µM: HL-60(TB) leukemia
6.41 µM: CAKI-1 renal
34.5 µM: PC-3 prostate
8.1 µM: OVCAR-3 ovarian
9.64 µM: NCI-H522 lung
53.3 µM: COLO 205 colon
22.1 µM: HOP-92 NSCLC
44.4 µM: OVCAR-4 ovarian
85 µM: MDA-N
12.5 µM: IGROV1 ovarian
not listed: OVCAR-8 ovarian | U251 CNS | HCC-2998 colon | OVCAR-5 ovarian | EKVX NSCLC
> 100 µM: all other assays above

COc1cc(C2C(C#N)=C(N)OC3=C2CCS(=O)(=O)c2ccc(C)cc23)cc(OC)c1OC (centres undefined)
not listed: MOLT-4 leukemia | SF-295 CNS | SK-OV-3 ovarian | SF-539 CNS | MCF7 breast | RXF 393 renal | EKVX NSCLC
> 100 µM: all other assays above

Cc1nnc2sc(NN)nn12
31.6 µM: MOLT-4 leukemia
not listed: HOP-92 NSCLC | SR leukemia | HL-60(TB) leukemia | HCC-2998 colon
> 100 µM: all other assays above

CN(N)c1cc(=O)[nH]c(=O)[nH]1
50.6 µM: BT-549 breast
not listed: COLO 205 colon | HOP-92 NSCLC | UO-31 renal | SNB-75 CNS | M14 melanoma | SK-MEL-2 melanoma | MDA-MB-435 | MCF7 breast | RXF 393 renal | U251 CNS | OVCAR-5 ovarian
> 100 µM: all other assays above
